From patent publication EP4775586A1, “DEUTERATED TETRACYCLIC DERIVATIVE AND USE THEREOF” (priority 2023, dated 2025)

Tests used:
CYP3A4 = type: in vitro ADME, mouse
Description: This example was to detect the CYP450 metabolic enzyme phenotype of the deuterated compound YF027 and its non-deuterated control compound A (using a CYP450 enzyme metabolic phenotype research kit (recombinant enzymatic method/7 enzymes)-mouse liver microsome test).
• a. The test compound was prepared into a 40 mM stock solution for later use. 2.5 µL of the stock solution was taken and diluted with DMSO to a test compound concentration of 200 µM, and the compound at this concentration was used in subsequent tests. • b. The working solution concentration of the mixed positive substrates, phenacetin and testosterone, was 200 µM.
1) The components of the kit were thawed in an ice bath. The mixture was well mixed by vortexing and then placed on ice for later use. 2) In addition to the microsomes, the other components of the incubation systems were mixed according to the ratios and well mixed by pipetting, and the ratios of the incubation systems are shown below; Table 6. Incubation system of positive control group
The inhibitors were quinidine, naphthoflavone, pilocarpine, sodium diethyldithiocarbamate, ticlopidine, ketoconazole, and sulfaphenazole, which corresponded to the inhibition of CYP450 enzymes CYP2D6, CYP1A2, CYP2A6, CYP2E1, CYP2C19, CYP3A4, and CYP2C9, respectively. Table 9. Incubation system of negative control group
3) Except for the negative control group (Table 9), 3.125 µL of liver microsomes was added to each of the above incubation systems to prepare 125 µL of reaction solution. The reaction solutions were well mixed by vortexing, and then placed in a water bath at 37 °C to initiate the reaction. A timer was set. 4) At time points of 0 min and 90 min, 50 µL of reaction solution was taken, and a pre-cooled acetonitrile solution was added to the reaction solution. The mixture was quickly well mixed by vortexing to stop the reaction. 5) Mass spectrometry detection pretreatment of reaction solution
The reaction solution was cryopreserved in a refrigerator at -80 °C overnight and then centrifuged for mass spectrometry detection.
The detection values after 90 min of incubation were processed as ratios relative to the 0-min detection values to determine the metabolic rate of the compounds in different experimental groups after 90 min. The metabolic inhibition rate was then calculated using the formula: Inhibition rate (%) = (1 - metabolic rate of sample with inhibitor/metabolic rate of sample without inhibitor) × 100%, as shown in Table 10 below. […] The metabolic inhibition rate reflects the effect on the metabolic elimination of the drug after adding different selective inhibitors. Therefore, when the metabolic inhibition rate of a specific enzyme is ≥ 25%, the contribution of the specific enzyme to the clearance of the drug under study can be inferred to be ≥ 25% based on the results of the in vitro metabolism study.

[1] = 28-day repeat-dose toxicity study in mice; type: in vivo, Balb/c mice
Description: Administration groups of the compound YF027 of the present disclosure and its non-deuterated control compound A were set for a 28-day repeat-dose toxicity study in mice. Each compound was administered to 10 Balb/c mice (5 females and 5 males, purchased from Beijing Vital River Laboratory Animal Technology Co., Ltd.) by intragastric administration. The administration was performed once daily for 6 consecutive days a week for 4 consecutive weeks, and an 8% Tween 80 vehicle control group (10 Balb/c mice, 5 females and 5 males) was set for administration at the same volume using the same method. Table 12. Administration information of repeat-dose toxicity assay
During the administration period, the mice were observed every day. The body weight, appearance signs, behavior and activity, fecal traits, and local reactions at the site of administration were recorded. After the end of the administration, the gross anatomy was performed on the mice in the administration group and the control group. The serum of the mice was collected, and the heart, liver, spleen, kidney, lung, and brain tissues and organs were weighed to calculate organ coefficients. The tissue samples of all groups were subjected to histopathological detection, and the serum samples were analyzed for biochemical parameters of liver and kidney functions. The serum biochemical parameters included: alanine aminotransferase (ALT), aspartate aminotransferase (AST), alkaline phosphatase (ALP), urea (UREA), creatinine (CREA), total protein (TP), and albumin (ALB). Statistical analysis was performed to evaluate potential toxic effects of the compounds.

Cl.[2H]C1([2H])CCCC([2H])([2H])N1C([2H])([2H])c1c(O)cc(C(C)(C)C)c2oc3c4ccc(O)cc4oc(=O)c3c12 [YF027, 10-(tert-Butyl)-3,8-dihydroxy-7-((piperidin-1-yl-2,2,6,6-d4)methyl-d2)-6H-benzofuran[3,2-c]chromen-6-one hydrochloride]
Inhibition rate (CYP3A4): 16.5%
toxic response after repeated administration ([1]; 100 mg/kg for 28 consecutive days, mice): did not produce a significant toxic response
mortality during the administration period ([1]; 100 mg/kg intragastric, once daily, 6 days a week, 4 weeks, Balb/c mice): no mice died
toxicity compared with the non-deuterated compound A ([1]; same dosing conditions, 100 mg/kg, 28 days, mice): no increased toxicity was observed
